Laboratory results taken from patent US9796702B2, “Dihydroquinoline pyrazolyl compounds” (Hoffmann-La Roche Inc., priority 2015, dated 2017).

Key:
[1] = target: human CYP11B1 (Homo sapiens (Human), UniProt P15538); assay: G-402 cellular enzyme assay, human CYP11B1 (cortisol release); type: cell-based; settings: G-402 cells expressing human CYP11B1; 1 μM Deoxycortisol
From the text: (§1) Herein we identified the use of the G-402 cell line as a host cell to ectopically express (transiently or stably) enzymes of the CYP11 family. Specifically we developed stable G-402 cells expressing ectopically human CYP11B1, human CYP11B2, human CYP11A1, cynmolgus CYP11B1 or cynomolgus CYP11B2 enzyme activity. Importantly the identified cell line G-402 expresses co-factors (adrenodoxin and adrenodoxin reductase) important for the activity of the CYP11 family and no relevant enzyme activity of the CYP11 family (in comparison to H295R cells) was detected in these cells. Therefore the G-402 cell line is uniquely suited as a host cell for the ectopic expression of enzymes from the CYP11 family.
(§2) G-402 cells can be obtained from ATCC (CRL-1440) and were originally derived from a renal leiomyoblastoma.
(§3) The expression plasmids contains the ORF for either human/cyno CYP11B1 or CYP11B2 under the control of a suitable promoter (CMV-promoter) and a suitable resistance marker (neomycin). Using standard techniques the expression plasmid is transfected into G-402 cells and these cells are then selected for expressing the given resistance markers. Individual cell-clones are then selected and assessed for displaying the desired enzymatic activity using 11-Deoxycorticosterone (Cyp11B2) or 11-Deoxycortisol (Cyp11B1) as a substrate.
(§4) G-402 cells expressing CYP11 constructs were established as described above and maintained in McCoy's 5a Medium Modified, ATCC Catalog No. 30-2007 containing 10% FCS and 400 μg/ml G418 (Geneticin) at 37° C. under an atmosphere of 5% CO2/95% air. Cellular enzyme assays were performed in DMEM/F12 medium containing 2.5% charcoal treated FCS and appropriate concentration of substrate (0.3-10 uM 11-Deoxycorticosterone, 11-Deoxycortisol or Corticosterone). For assaying enzymatic activity, cells were plated onto 96 well plates and incubated for 16 h. An aliquot of the supernatant is then transferred and analyzed for the concentration of the expected product (Aldosterone for CYP11B2; Cortisol for CYP11B1). The concentrations of these steroids can be determined using HTRF assays from CisBio analyzing either Aldosterone or Cortisol.
(§5) Inhibition of the release of produced steroids can be used as a measure of the respective enzyme inhibition by test compounds added during the cellular enzyme assay. The dose dependent inhibition of enzymatic activity by a compound is calculated by means of plotting added inhibitor concentrations (x-axes) vs. measured steroid/product level (y-axes). The inhibition is then calculated by fitting the following 4-parameter sigmoidal function (Morgan-Mercer-Flodin (MMF) model) to the raw data points using the least squares method:
(§6) [formula] wherein, A is the maximum y value, B is the EC50 factor determined using XLFit, C is the minimum y value and D is the slope value.
(§7) EC50 values for compounds claimed herein were tested with the G402-based assay system described. Cyp11B2 enzyme activity was tested in presence of 1 μM Deoxycorticosterone and variable amounts of inhibitors; Cyp11B1 enzyme activity was tested in presence of 1 μM Deoxycortisol and variable amounts of inhibitors.

[2] = target: T1, CYP11B2 (Homo sapiens (Human), UniProt P19099); assay: G-402 cellular enzyme assay, human CYP11B2 (aldosterone release); type: cell-based; settings: G-402 cells expressing human CYP11B2; 1 μM Deoxycorticosterone
From the text: as §1, §2, §3, §4, §5, §6, §7

[3] = cited from earlier work; for plasma aldosterone: FAD286: 4 weeks of treatment, spironolactone: 4 and 8 weeks of treatment; for cardiac and aortic medial hypertrophy / renal effects (albuminuria, azotemia, renovascular hypertrophy, glomerular injury, PAI-1 and osteopontin mRNA, tubulointerstitial fibrosis): angiotensin II and high salt treatment, rat; for angiotensin II and salt-stimulated PAI-1 mRNA expression: aorta and heart
[4] = rats with experimental heart failure; cited from earlier work
[5] = target: T1, CYP11B2; settings: patients with primary aldosteronism, cited from earlier work
[6] = system: CYP11B2; settings: patients with primary aldosteronism; cited from earlier work

T1 sequence (P19099 25-503): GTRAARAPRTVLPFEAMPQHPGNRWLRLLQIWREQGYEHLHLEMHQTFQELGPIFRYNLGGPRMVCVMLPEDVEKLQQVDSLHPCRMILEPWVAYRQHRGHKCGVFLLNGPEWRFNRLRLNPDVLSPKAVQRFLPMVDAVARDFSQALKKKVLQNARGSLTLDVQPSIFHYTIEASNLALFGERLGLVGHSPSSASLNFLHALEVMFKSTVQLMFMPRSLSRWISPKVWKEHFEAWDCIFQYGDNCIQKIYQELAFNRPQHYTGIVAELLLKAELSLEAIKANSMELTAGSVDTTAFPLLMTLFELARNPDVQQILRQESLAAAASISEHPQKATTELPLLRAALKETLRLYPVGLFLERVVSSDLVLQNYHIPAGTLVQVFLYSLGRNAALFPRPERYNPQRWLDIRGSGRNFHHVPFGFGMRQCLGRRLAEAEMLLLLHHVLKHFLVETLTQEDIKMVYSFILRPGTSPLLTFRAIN
Chain of human CYP11B1 (P15538 25-503): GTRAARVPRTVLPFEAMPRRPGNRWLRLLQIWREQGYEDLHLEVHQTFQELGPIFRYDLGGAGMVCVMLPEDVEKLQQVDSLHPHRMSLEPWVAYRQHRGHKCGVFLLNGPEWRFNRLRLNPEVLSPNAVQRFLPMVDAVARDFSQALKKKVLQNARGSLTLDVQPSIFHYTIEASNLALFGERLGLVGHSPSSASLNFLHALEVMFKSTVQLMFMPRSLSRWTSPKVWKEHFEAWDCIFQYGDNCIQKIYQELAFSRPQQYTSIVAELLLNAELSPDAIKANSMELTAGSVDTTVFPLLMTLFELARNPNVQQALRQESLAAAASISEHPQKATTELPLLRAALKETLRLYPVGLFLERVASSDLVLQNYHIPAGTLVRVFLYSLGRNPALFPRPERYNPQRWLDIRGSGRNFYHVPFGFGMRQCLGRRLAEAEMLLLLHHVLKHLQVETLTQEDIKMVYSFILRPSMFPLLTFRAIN

## CC(=O)N1CCC(Cc2c[nH]nc2-c2ccc3c(c2)CCC(=O)N3C)CC1 [Example 16, 6-[4-[(1-Acetyl-4-piperidyl)methyl]-1H-pyrazol-3-yl]-1-methyl-3,4-dihydroquinolin-2-one]
[1]
  EC50: 0.266 nM
[2]
  EC50: 0.0283 nM

## CN1C(=O)CCc2cc(-c3n[nH]cc3CC3CCN(C(=O)c4cnn(C)c4)CC3)ccc21 [Example 17, 1-Methyl-6-[4-[[1-(1-methylpyrazole-4-carbonyl)-4-piperidyl]methyl]-1H-pyrazol-3-yl]-3,4-dihydroquinolin-2-one]
[1]
  EC50: 1.2 nM

## CCS(=O)(=O)N1CCC(Cc2c[nH]nc2-c2ccc3c(c2)CCC(=O)N3C)CC1 [Example 18, 6-[4-[(1-Ethylsulfonyl-4-piperidyl)methyl]-1H-pyrazol-3-yl]-1-methyl-3,4-dihydroquinolin-2-one]
[1]
  EC50: 0.216 nM
[2]
  EC50: 0.0052 nM

## CC(=O)N1CCC(Cc2c[nH]nc2-c2cc3c(cc2F)N(C)C(=O)CC3)CC1 [Example 19, 6-[4-[(1-Acetylpiperidin-4-yl)methyl]-1H-pyrazol-3-yl]-7-fluoro-1-methyl-3,4-dihydroquinolin-2-one]
[1]
  EC50: 0.416 nM
[2]
  EC50: 0.0171 nM

## CN1C(=O)CCc2c1ccc(-c1n[nH]cc1CC1CCN(C(=O)c3cnn(C)c3)CC1)c2F [Example 20, 5-Fluoro-1-methyl-6-[4-[[1-(1-methylpyrazole-4-carbonyl)piperidin-4-yl]methyl]-1H-pyrazol-3-yl]-3,4-dihydroquinolin-2-one]
[1]
  EC50: 0.723 nM

## CC(=O)N1CCC(Cc2c[nH]nc2-c2ccc3c(c2F)CCC(=O)N3C)CC1 [Example 21, 6-[4-[(1-Acetyl-4-piperidyl)methyl]-1H-pyrazol-3-yl]-5-fluoro-1-methyl-3,4-dihydroquinolin-2-one]
[1]
  EC50: 0.447 nM
[2]
  EC50: 0.012 nM

## CCS(=O)(=O)N1CCC(Cc2cn[nH]c2-c2ccc3c(c2F)CCC(=O)N3C)CC1 [Example 22, 6-[4-[(1-Ethylsulfonylpiperidin-4-yl)methyl]-1H-pyrazol-3-yl]-5-fluoro-1-methyl-3,4-dihydroquinolin-2-one]
[1]
  EC50: 0.133 nM

## CN1C(=O)CCc2c1ccc(-c1[nH]ncc1CC1CCN(C(=O)c3ncccc3Cl)CC1)c2Cl [Example 28, 5-Chloro-6-[4-[[1-(3-chloropyridine-2-carbonyl)-4-piperidyl]methyl]-1H-pyrazol-3-yl]-1-methyl-3,4-dihydroquinolin-2-one]
[1]
  EC50: 2.45 nM
[2]
  EC50: 0.0276 nM

## CN1C(=O)CCc2c1ccc(-c1[nH]ncc1CC1CCN(C(=O)c3ccnn3C)CC1)c2Cl [Example 29, 5-Chloro-1-methyl-6-[4-[[1-(2-methylpyrazole-3-carbonyl)-4-piperidyl]methyl]-1H-pyrazol-3-yl]-3,4-dihydroquinolin-2-one]
[1]
  EC50: 3.31 nM
[2]
  EC50: 0.0164 nM

## CN1C(=O)CCc2c1ccc(-c1[nH]ncc1CC1CCN(C(=O)c3ccncc3Cl)CC1)c2Cl [Example 30, 5-Chloro-6-[4-[[1-(3-chloropyridine-4-carbonyl)-4-piperidyl]methyl]-1H-pyrazol-3-yl]-1-methyl-3,4-dihydroquinolin-2-one]
[1]
  EC50: 2.47 nM
[2]
  EC50: 0.0192 nM

## CN1C(=O)CCc2cc(-c3[nH]ncc3CC3CCN(C(=O)c4cncn4C)CC3)ccc21 [Example 31, 1-Methyl-6-[4-[[1-(3-methylimidazole-4-carbonyl)-4-piperidyl]methyl]-1H-pyrazol-3-yl]-3,4-dihydroquinolin-2-one]
[1]
  EC50: 1.12 nM
[2]
  EC50: 0.007 nM

## CN1C(=O)CCc2cc(-c3[nH]ncc3CC3CCN(C(=O)c4nccn4C)CC3)ccc21 [Example 32, 1-Methyl-6-[4-[[1-(1-methylimidazole-2-carbonyl)-4-piperidyl]methyl]-1H-pyrazol-3-yl]-3,4-dihydroquinolin-2-one]
[1]
  EC50: 0.351 nM
[2]
  EC50: 0.0294 nM

## CN1C(=O)CCc2cc(-c3[nH]ncc3CC3CCN(C(=O)c4ncccc4Cl)CC3)ccc21 [Example 34, 6-[4-[[1-(3-Chloropyridine-2-carbonyl)-4-piperidyl]methyl]-1H-pyrazol-3-yl]-1-methyl-3,4-dihydroquinolin-2-one]
[1]
  EC50: 0.547 nM
[2]
  EC50: 0.0145 nM

## CCS(=O)(=O)N1CC2(CC(Cc3c[nH]nc3-c3ccc4c(c3Cl)CCC(=O)N4C)C2)C1 [Example 39, 5-Chloro-6-[4-[(2-ethylsulfonyl-2-azaspiro[3.3]heptan-6-yl)methyl]-1H-pyrazol-3-yl]-1-methyl-3,4-dihydroquinolin-2-one]
[1]
  EC50: 0.215 nM
[2]
  EC50: 0.0059 nM

## CC(=O)N1CC2(CC(Cc3c[nH]nc3-c3ccc4c(c3Cl)CCC(=O)N4C)C2)C1 [Example 40, 6-[4-[(2-Acetyl-2-azaspiro[3.3]heptan-6-yl)methyl]-1H-pyrazol-3-yl]-5-chloro-1-methyl-3,4-dihydroquinolin-2-one]
[1]
  EC50: 2.47 nM
[2]
  EC50: 0.0495 nM

## CN1C(=O)CCc2c1ccc(-c1n[nH]cc1CC1CC3(C1)CN(C(=O)c1cnn(C)c1)C3)c2Cl [Example 41, 5-Chloro-1-methyl-6-[4-[[2-(1-methylpyrazole-4-carbonyl)-2-azaspiro[3.3]heptan-6-yl]methyl]-1H-pyrazol-3-yl]-3,4-dihydroquinolin-2-one]
[1]
  EC50: 7.29 nM
[2]
  EC50: 0.0377 nM

## N#Cc1ccc(C2CCCc3cncn32)cc1 (stereo not shown) [FAD286]
[3]
  plasma aldosterone: reduced
  cardiac and aortic medial hypertrophy: attenuated
  renal effects (albuminuria, azotemia, renovascular hypertrophy, glomerular injury, PAI-1 and osteopontin mRNA, tubulointerstitial fibrosis): prevented these renal effects
  angiotensin II and salt-stimulated PAI-1 mRNA expression: not
[4]
  blood pressure and cardiovascular function and structure: improved
  kidney function and morphology: improve

## N#Cc1ccc([C@H]2CCc3cncn32)c(F)c1 [LCI699]
[5]; oral
  circulating aldosterone levels: significantly lower
[5]
  blood pressure: mildly decreased
  hypokalemia: corrected
[6]
  selectivity (effects on the glucocorticoid axis, cortisol synthesis): poor selectivity

## CC(=O)S[C@@H]1CC2=CC(=O)CC[C@]2(C)[C@H]2CC[C@@]3(C)[C@@H](CC[C@@]34CCC(=O)O4)[C@H]12 [spironolactone]
[3]
  plasma aldosterone: increased
  cardiac and aortic medial hypertrophy: attenuated
  renal effects (albuminuria, azotemia, renovascular hypertrophy, glomerular injury, PAI-1 and osteopontin mRNA, tubulointerstitial fibrosis): prevented these renal effects
  angiotensin II and salt-stimulated PAI-1 mRNA expression: enhanced
